# No end group written: not given here.
# Key:
# [1] = test system: EA.hy926 cells; assay: Wound healing assay (Ang II-induced migration); type: cell-based; conditions: captopril 0.2 mg/mL, Ang II-induced
# Method: The effect of peptides on endothelial cell migration was evaluated using a wound healing assay. Briefly, EA.hy926 cells were seeded into 6-well plates and cultured at 37 °C in a humidified atmosphere containing 5% CO2. When the cells reached full confluence, they were treated with 1 μmol/L Ang II for 12 h to induce endothelial dysfunction. Subsequently, a straight scratch was created across the cell monolayer using a sterile 200 μL pipette tip. Detached cells were gently removed by rinsing with PBS, leaving a clear cell-free wound area. To minimize proliferation interference, cells were then incubated in high-glucose DMEM containing 1% FBS, supplemented with different concentrations of the peptides or captopril. Images of the same wound area were captured at 0 h, 6 h, and 24 h using a fluorescence microscope (Axio Observer, Zeiss, Jena, Germany), and the wound area was quantified using ImageJ software (version 1.54g).
# [2] = test system: EA.hy926 cells; assay: ET-1 level in Ang II-stimulated cells (ELISA); type: cell-based; conditions: captopril after Ang II; control 13.82, Ang II 15.65
# Method: (§1) To evaluate the effect of the peptide on endothelial function, NO and ET-1 levels were measured in this study. Briefly, EA.hy926 cells were seeded in 6-well plates at a density of 4 × 10^5 cells/well and allowed to adhere overnight. After removing the medium, cells were incubated with 1 μmol/L Ang II for 12 h to induce endothelial dysfunction. Subsequently, the peptide solutions at different concentrations (0.1, 0.2, and 0.4 mg/mL) or the captopril solutions were added, and the cells were incubated for an additional 24 h. For the blank control group, the cells received no treatment. After incubation, the culture supernatants were collected and centrifuged to remove debris. Both NO and ET-1 contents in the supernatants were quantified using commercial kits according to the manufacturer’s protocols. NO content was determined using the Griess reaction (OD = 550 nm), and ET-1 levels were measured via enzyme-linked immunosorbent assay (ELISA) (OD = 450 nm). Absorbance values were recorded at the corresponding wavelengths using a microplate reader (Spark 10M, Tecan, Männedorf, Switzerland).
# [3] = test system: EA.hy926 cells; assay: GSH-Px activity in H2O2-damaged cells; type: cell-based; conditions: captopril; vs H2O2 group
# Method: (§2) The activities of SOD and GSH-Px were assessed as follows. EA.hy926 cells were seeded in 6-well plates at 4 × 10^5 cells per well and cultured overnight. After attachment, the cells were serum-starved in high-glucose DMEM containing 1% FBS for 12 h, and then treated for 24 h with peptide solutions at the indicated concentrations or with captopril. […] After treatment, the cells were washed with ice-cold PBS, lysed on ice, and centrifuged to collect the supernatants. SOD and GSH-Px activities were measured spectrophotometrically at 550 nm and 412 nm, respectively, using a microplate reader. Enzyme activities were calculated, normalized to total protein content, and expressed as U/mg protein.
# [4] = test system: EA.hy926 cells; assay: SOD activity in H2O2-damaged cells; type: cell-based; conditions: captopril; vs H2O2 group
# Method: as §2
# [5] = test system: EA.hy926 cells; assay: NO level in Ang II-stimulated cells (Griess); type: cell-based; conditions: captopril after Ang II; control 109.8, Ang II 58.95
# Method: as §1
# [6] = test system: EA.hy926 cells; assay: MTT cytotoxicity assay; conditions: EA.hy926, 24 h, 0.0625 to 1 mg/mL; ISO 10993-5 limit: viability above 70%
# Method: Cell culture. EA.hy926 endothelial cells were cultured in high-glucose Dulbecco’s Modified Eagle Medium (DMEM) supplemented with 10% fetal bovine serum (FBS) and 1% penicillin–streptomycin. Cells were maintained in a humidified incubator at 37 °C with 5% CO2. When cell confluence reached approximately 70–80%, subculturing was performed for subsequent experiments.
# Cytotoxicity assay. The cytotoxicity of the peptides was evaluated using the MTT assay [29]. […] After incubation at 37 °C for 4 h, the supernatant was carefully removed, and 150 μL of DMSO was added to dissolve the formazan crystals. The plate was shaken for 10 min, and the absorbance was measured at 490 nm using a microplate reader.
# [7] = test system: endothelial cells; conditions: 48 h of treatment; 129% in the Ang II group; cited from earlier work
# Excerpt: All three concentrations produced highly similar su ...
# [8] = test system: endothelial cells; parameters: method as in PMID 37501259; conditions: Ang II-treated endothelial cells, cited from earlier work
compound,measurement,setting,value
C[C@H](CS)C(=O)N1CCC[C@H]1C(=O)O [captopril],Migration rate,"[1]; 6 h, Ang II alone 42.44",25.77 ± 2.49%
same,Migration rate,"[1]; 24 h, Ang II alone 89.68",57.52 ± 1.92%
same,ET-1 content,[2],12.70 ± 0.48 pg/mg prot
same,GSH-Px improvement,[3],38.8%
same,SOD improvement,[4],70.9%
same,NO level,[5],97.86 ± 4.47 μmol/g prot
PYPDWSFAK [PYPDWSFAK],Cytotoxicity,[6],non-cytotoxic
SPIH [soybean protein-derived peptide],Endothelial wound healing,[7],92%
same,NO content,[8]; 31.4 ± 0.7 before,43.7 ± 0.1 µmol/L
same,NO increase,[8],39.3%
